# From ChEMBL document CHEMBL5233221, “Celastrol: Progresses in structure-modifications, structure-activity relationships, pharmacology and toxicology” (Eur J Med Chem, 2020)
# Legend:
# Bel-7402 = test: Antiproliferative activity against human Bel-7402 cells assessed as cell growth inhibition; assay type: functional, cell-based
# U-937 = test: Antiproliferative activity against human U-937 cells assessed as cell growth inhibition; assay type: functional, cell-based
# AGS = test: Antiproliferative activity against human AGS cells assessed as cell growth inhibition; assay type: functional, cell-based
# K562 = test: Antiproliferative activity against human K562 cells assessed as cell growth inhibition; assay type: functional, cell-based
# KBM5 [1] = test: Antiproliferative activity against human KBM5 cells assessed as cell growth inhibition; assay type: functional, cell-based
# KBM5 [2] = test: Antiproliferative activity against human KBM5 cells expressing Bcr-Abl harboring T315I mutant assessed as cell growth inhibition; assay type: functional, cell-based
# Kasumi 1 = test: Antiproliferative activity against human Kasumi 1 cells assessed as cell growth inhibition; assay type: functional, cell-based
# [3] = Antiproliferative activity against human SKNO-1 cells assessed as cell growth inhibition; assay type: functional, cell-based
# U-266 = test: Antiproliferative activity against human U-266 cells assessed as cell growth inhibition; assay type: functional, cell-based
# MM1.S = test: Antiproliferative activity against human MM1.S cells assessed as cell growth inhibition; assay type: functional, cell-based
# [4] = Antiproliferative activity against human MM1.R cells assessed as cell growth inhibition; assay type: functional, cell-based; conditions: MM.1R
# LP-1 = test: Antiproliferative activity against human LP-1 cells assessed as cell growth inhibition; assay type: functional, cell-based
# NCI-H929 = test: Antiproliferative activity against human NCI-H929 cells assessed as cell growth inhibition; assay type: functional, cell-based
# RPMI-8226 [5] = test: Antiproliferative activity against human RPMI-8226 cells assessed as cell growth inhibition; assay type: functional, cell-based
# RPMI-8226 [6] = test: Antiproliferative activity against doxorubicin resistant human RPMI-8226 cells assessed as cell growth inhibition; assay type: functional, cell-based
# RPMI-8226 [7] = test: Antiproliferative activity against bortezomib resistant human RPMI-8226 cells assessed as cell growth inhibition; assay type: functional, cell-based
# HeLa = test: Antiproliferative activity against human HeLa cells assessed as cell growth inhibition; assay type: functional, cell-based
# HepG2 = test: Antiproliferative activity against human HepG2 cells assessed as cell growth inhibition; assay type: functional, cell-based
# C3A = test: Antiproliferative activity against human C3A cells assessed as cell growth inhibition; assay type: functional, cell-based
# Huh-7 = test: Antiproliferative activity against human Huh-7 cells assessed as cell growth inhibition; assay type: functional, cell-based
# MKN-45 = test: Antiproliferative activity against human MKN-45 cells assessed as cell growth inhibition; assay type: functional, cell-based
# MKN-28 = test: Antiproliferative activity against human MKN-28 cells assessed as cell growth inhibition; assay type: functional, cell-based
# [8] = Antiproliferative activity against human KATO III stomach cancer cell line assessed as cell growth inhibition; assay type: functional, cell-based
# [9] = Antiproliferative activity against human YCC-2 cells assessed as cell growth inhibition; assay type: functional, cell-based
# PC-3 = test: Antiproliferative activity against human PC-3 cells assessed as cell growth inhibition; assay type: functional, cell-based
# DU-145 = test: Antiproliferative activity against human DU-145 cells assessed as cell growth inhibition; assay type: functional, cell-based
# LNCaP = test: Antiproliferative activity against human LNCaP cells assessed as cell growth inhibition; assay type: functional, cell-based
# [10] = Antiproliferative activity against dog CL-1 cells assessed as cell growth inhibition; assay type: functional, cell-based; conditions: Canis lupus familiaris
# RCC4 = test: Antiproliferative activity against human RCC4 cells assessed as cell growth inhibition; assay type: functional, cell-based
# [11] = Antiproliferative activity against human Renal cancer tumor cell line assessed as cell growth inhibition; assay type: functional, cell-based
# UMSCC1 = test: Antiproliferative activity against human UMSCC1 cells assessed as cell growth inhibition; assay type: functional, cell-based
# SCC-4 = test: Antiproliferative activity against human SCC-4 cells assessed as cell growth inhibition; assay type: functional, cell-based
# SCC-38 = test: Antiproliferative activity against human SCC-38 cells assessed as cell growth inhibition; assay type: functional, cell-based
# A549 = test: Antiproliferative activity against human A549 cells assessed as cell growth inhibition; assay type: functional, cell-based
# NCI-H1299 = test: Antiproliferative activity against human NCI-H1299 cells assessed as cell growth inhibition; assay type: functional, cell-based
# NCI-H1975 [12] = test: Antiproliferative activity against human NCI-H1975 cells assessed as cell growth inhibition; assay type: functional, cell-based
# NCI-H460 = test: Antiproliferative activity against human NCI-H460 cells assessed as cell growth inhibition; assay type: functional, cell-based
# HCC827 = test: Antiproliferative activity against human HCC827 cells assessed as cell growth inhibition; assay type: functional, cell-based
# [13] = Antiproliferative activity against human SPCA1 cells assessed as cell growth inhibition; assay type: functional, cell-based
# [14] = Antiproliferative activity against human GLC-82 cells assessed as cell growth inhibition; assay type: functional, cell-based; conditions: GLC82
# NSCLC = test: Antiproliferative activity against human NSCLC cells assessed as cell growth inhibition; assay type: functional, cell-based
# [15] = Antiproliferative activity against human 95-D cells assessed as cell growth inhibition; assay type: functional, cell-based
# NCI-H1650 = test: Antiproliferative activity against human NCI-H1650 cells assessed as cell growth inhibition; assay type: functional, cell-based
# NCI-H1975 [16] = test: Antiproliferative activity against gefitinib-resistant human NCI-H1975 cells assessed as cell growth inhibition; assay type: functional, cell-based
# NCI-H2228 = test: Antiproliferative activity against human NCI-H2228 cells assessed as cell growth inhibition; assay type: functional, cell-based
# SW13 = test: Antiproliferative activity against human SW13 cells assessed as cell growth inhibition; assay type: functional, cell-based
# SK-MEL-28 = test: Antiproliferative activity against human SK-MEL-28 cells assessed as cell growth inhibition; assay type: functional, cell-based
# U-251 = test: Antiproliferative activity against human U-251MG cells assessed as cell growth inhibition; assay type: functional, cell-based
# [17] = Antiproliferative activity against human U373 MG cells assessed as cell growth inhibition; assay type: functional, cell-based, U-373MG ATCC
# MCF7 = test: Antiproliferative activity against human MCF7 cells assessed as cell growth inhibition; assay type: functional, cell-based
# MDA-MB-231 = test: Antiproliferative activity against human MDA-MB-231 cells assessed as cell growth inhibition; assay type: functional, cell-based
# A2780 = test: Antiproliferative activity against human A2780 cells assessed as cell growth inhibition; assay type: functional, cell-based
# SK-OV-3 = test: Antiproliferative activity against human SK-OV-3 cells assessed as cell growth inhibition; assay type: functional, cell-based
# [18] = Antiproliferative activity against human 253J-BV cells assessed as cell growth inhibition; assay type: functional, cell-based
# [19] = Antiproliferative activity against human KU-7 cells assessed as cell growth inhibition; assay type: functional, cell-based; conditions: KU7
# [20] = Antiproliferative activity against human Nasopharyngeal carcinoma cell line assessed as cell growth inhibition; assay type: functional, cell-based
# U2OS = test: Antiproliferative activity against human U2OS cells assessed as cell growth inhibition; assay type: functional, cell-based
# HOS = test: Antiproliferative activity against human HOS cells assessed as cell growth inhibition; assay type: functional, cell-based
# MG-63 = test: Antiproliferative activity against human MG-63 cells assessed as cell growth inhibition; assay type: functional, cell-based
# SAOS-2 = test: Antiproliferative activity against human SAOS-2 cells assessed as cell growth inhibition; assay type: functional, cell-based
# Rhizoctonia solani = test: Antifungal activity against Rhizoctonia solani assessed as inhibition of fungal growth at 10 ug/ml relative to control; assay type: functional; parameters: scale not given: the % may be the effect or the level left; conditions: dose 10 µg/ml
# [21] = test system: Colletotrichum gloeosporioides; test: Antifungal activity against Glomerella cingulata assessed as inhibition of fungal growth at 10 ug/ml relative to control; assay type: functional; parameters: scale not given: the % may be the effect or the level left; conditions: dose 10 µg/ml
# Erysiphales [22] = test: Antifungal activity against powdery mildew assessed as preventive effects at 100 ug/ml relative to control; assay type: functional; conditions: dose 100 µg/ml
# Erysiphales [23] = test: Antifungal activity against powdery mildew assessed as curative effects at 100 ug/ml relative to control; assay type: functional; conditions: dose 100 µg/ml
# Staphylococcus aureus = test: Antibacterial activity against Staphylococcus aureus assessed as inhibition of bacterial growth; assay type: functional
# [24] = biological target: UDP-glucuronosyltransferase 1A6 (Homo sapiens, UniProt P19224); test: Binding affinity to UGT1A6 (unknown origin) assessed as inhibition constant
# [25] = biological target: UDP-glucuronosyltransferase 2B7 (Homo sapiens, UniProt P16662); test: Binding affinity to UGT2B7 (unknown origin) assessed as inhibition constant
# Cytochrome P450 2C11 [26] = biological target: T1, Cytochrome P450 2C11 (Rattus norvegicus, UniProt P08683); test: Inhibition of rat Cyp2c11; assay type: ADME
# Cytochrome P450 2C11 [27] = biological target: T1, Cytochrome P450 2C11; test: Binding affinity to rat Cyp2c11; assay type: ADME
# Cytochrome P450 1A2 [28] = biological target: T2, Cytochrome P450 1A2 (Rattus norvegicus, UniProt P04799); test: Inhibition of rat CYP1A2
# Cytochrome P450 1A2 [29] = biological target: T2, Cytochrome P450 1A2; test: Binding affinity to rat CYP1A2
# Cytochrome P450 3A2 [30] = biological target: T3, Cytochrome P450 3A2 (Rattus norvegicus, UniProt P05183); test: Inhibition of rat CYP3A2
# Cytochrome P450 3A2 [31] = biological target: T3, Cytochrome P450 3A2; test: Binding affinity to rat CYP3A2
# [32] = Toxicity in wild-type Zebrafish embryos measured after 48 hrs; parameters: species or system Danio rerio
# [33] = Toxicity in wild-type Zebrafish embryos measured after 72 hrs; parameters: species or system Danio rerio
# [34] = Toxicity in wild-type Zebrafish embryos assessed as lethal effect; parameters: species or system Danio rerio; conditions: in vivo
# Mus musculus = test: Antiinflammatory activity in po dosed asthmatic mouse model; assay type: functional
# T3 sequence (P05183 whole entry): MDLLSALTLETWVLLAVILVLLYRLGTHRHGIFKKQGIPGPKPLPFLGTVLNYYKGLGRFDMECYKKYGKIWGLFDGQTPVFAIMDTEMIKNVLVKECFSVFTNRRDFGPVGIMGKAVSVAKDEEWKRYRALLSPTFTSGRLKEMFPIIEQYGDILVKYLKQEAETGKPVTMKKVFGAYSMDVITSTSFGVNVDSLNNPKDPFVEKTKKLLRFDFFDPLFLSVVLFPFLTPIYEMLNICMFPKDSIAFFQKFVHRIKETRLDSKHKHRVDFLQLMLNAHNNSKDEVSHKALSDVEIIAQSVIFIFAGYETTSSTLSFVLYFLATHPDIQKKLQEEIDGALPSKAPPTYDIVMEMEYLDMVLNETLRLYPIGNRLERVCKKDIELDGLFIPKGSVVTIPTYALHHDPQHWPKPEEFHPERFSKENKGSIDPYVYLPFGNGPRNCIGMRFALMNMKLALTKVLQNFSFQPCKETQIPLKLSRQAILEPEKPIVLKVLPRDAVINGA
# T2 sequence (P04799 whole entry): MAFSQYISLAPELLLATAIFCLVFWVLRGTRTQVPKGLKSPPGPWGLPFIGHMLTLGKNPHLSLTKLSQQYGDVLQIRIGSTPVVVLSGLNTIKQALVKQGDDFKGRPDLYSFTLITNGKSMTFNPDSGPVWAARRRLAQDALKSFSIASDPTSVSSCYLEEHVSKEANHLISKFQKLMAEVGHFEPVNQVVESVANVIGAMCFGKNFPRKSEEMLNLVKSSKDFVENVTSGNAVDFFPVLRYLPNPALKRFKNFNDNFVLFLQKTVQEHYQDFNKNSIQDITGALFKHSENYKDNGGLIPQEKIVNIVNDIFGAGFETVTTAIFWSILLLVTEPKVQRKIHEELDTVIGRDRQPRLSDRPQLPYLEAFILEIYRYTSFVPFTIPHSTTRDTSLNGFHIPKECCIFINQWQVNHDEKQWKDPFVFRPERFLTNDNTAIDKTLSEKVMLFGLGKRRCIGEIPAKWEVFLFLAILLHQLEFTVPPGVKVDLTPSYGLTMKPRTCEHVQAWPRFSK
# T1 sequence (P08683 whole entry): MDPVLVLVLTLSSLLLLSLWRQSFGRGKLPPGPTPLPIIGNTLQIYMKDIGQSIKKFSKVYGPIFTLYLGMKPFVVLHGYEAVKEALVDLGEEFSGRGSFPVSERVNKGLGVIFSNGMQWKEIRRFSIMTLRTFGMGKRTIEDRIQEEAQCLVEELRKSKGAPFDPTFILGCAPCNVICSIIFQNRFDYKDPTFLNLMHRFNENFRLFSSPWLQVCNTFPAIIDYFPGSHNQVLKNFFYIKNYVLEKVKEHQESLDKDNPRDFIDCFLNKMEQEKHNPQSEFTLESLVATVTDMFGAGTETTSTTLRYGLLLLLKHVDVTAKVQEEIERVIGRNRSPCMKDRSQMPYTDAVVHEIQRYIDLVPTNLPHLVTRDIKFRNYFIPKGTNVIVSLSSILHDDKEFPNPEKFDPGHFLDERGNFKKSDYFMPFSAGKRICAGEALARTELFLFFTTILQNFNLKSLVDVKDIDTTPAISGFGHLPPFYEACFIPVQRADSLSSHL
# Sequence of UDP-glucuronosyltransferase 1A6 (P19224 whole entry): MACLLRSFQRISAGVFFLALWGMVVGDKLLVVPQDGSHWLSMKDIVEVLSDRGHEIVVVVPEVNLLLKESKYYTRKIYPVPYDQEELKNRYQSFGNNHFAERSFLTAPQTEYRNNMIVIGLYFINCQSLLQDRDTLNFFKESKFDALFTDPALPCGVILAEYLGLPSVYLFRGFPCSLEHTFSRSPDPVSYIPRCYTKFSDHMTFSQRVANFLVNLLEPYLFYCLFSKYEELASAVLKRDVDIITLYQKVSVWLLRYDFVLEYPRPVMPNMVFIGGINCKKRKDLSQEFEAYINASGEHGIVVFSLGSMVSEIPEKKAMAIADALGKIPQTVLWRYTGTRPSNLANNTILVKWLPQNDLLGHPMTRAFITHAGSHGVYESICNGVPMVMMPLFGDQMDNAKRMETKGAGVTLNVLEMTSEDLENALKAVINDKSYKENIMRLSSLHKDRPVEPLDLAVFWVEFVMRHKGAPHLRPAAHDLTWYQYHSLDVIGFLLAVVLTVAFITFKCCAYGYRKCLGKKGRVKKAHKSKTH
# Sequence of UDP-glucuronosyltransferase 2B7 (P16662 whole entry): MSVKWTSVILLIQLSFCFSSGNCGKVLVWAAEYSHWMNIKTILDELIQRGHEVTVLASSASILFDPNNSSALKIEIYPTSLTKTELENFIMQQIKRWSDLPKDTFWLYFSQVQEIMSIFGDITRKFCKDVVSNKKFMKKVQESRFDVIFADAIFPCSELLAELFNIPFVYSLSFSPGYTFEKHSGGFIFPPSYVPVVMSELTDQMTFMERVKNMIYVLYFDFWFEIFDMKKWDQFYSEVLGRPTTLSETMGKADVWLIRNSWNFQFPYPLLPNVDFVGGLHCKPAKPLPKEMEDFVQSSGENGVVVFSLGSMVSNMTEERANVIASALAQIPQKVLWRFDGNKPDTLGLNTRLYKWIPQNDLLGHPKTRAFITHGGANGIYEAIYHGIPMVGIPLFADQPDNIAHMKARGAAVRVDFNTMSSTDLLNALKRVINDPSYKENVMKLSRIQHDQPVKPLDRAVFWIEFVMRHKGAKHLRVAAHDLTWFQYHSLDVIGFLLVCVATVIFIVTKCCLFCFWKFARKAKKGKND
smiles,measurement,setting,value
COC(=O)[C@]1(C)CC[C@]2(C)CC[C@]3(C)C4=CC(c5c[nH]c6cc(C)ccc56)c5c(cc(OC)c(OC)c5C)[C@]4(C)CC[C@@]3(C)[C@@H]2C1 (stereo partly drawn),IC50,Bel-7402,20 nM
COC(=O)[C@]1(C)CC[C@]2(C)CC[C@]3(C)C4=CC(c5cn(C)c6cc(Cl)ccc56)c5c(cc(OC)c(OC)c5C)[C@]4(C)CC[C@@]3(C)[C@@H]2C1 (stereo partly drawn),IC50,Bel-7402,10 nM
CC1=C(O)C(=O)C=C2C1=CC=C1[C@@]2(C)CC[C@@]2(C)[C@@H]3C[C@](C)(C(=O)O)CC[C@]3(C)CC[C@]12C [CELASTROL],IC50,U-937,2000 nM
same,IC50,AGS,250 nM
same,IC50,K562,400 nM
same,IC50,KBM5 [1],500 nM
same,IC50,KBM5 [2],520 nM
same,IC50,Kasumi 1,2200 nM
same,IC50,[3],1300 nM
same,IC50,U-266,470 nM
same,IC50,MM1.S,630 nM
same,IC50,[4],520 nM
same,IC50,LP-1,880 nM
same,IC50,NCI-H929,310 nM
same,IC50,RPMI-8226 [5],520 nM
same,IC50,RPMI-8226 [6],520 nM
same,IC50,RPMI-8226 [7],730 nM
same,IC50,HeLa,1900 nM
same,IC50,HepG2,2400 nM
same,IC50,C3A,3600 nM
same,IC50,Huh-7,4700 nM
same,IC50,MKN-45,3400 nM
same,IC50,MKN-28,2300 nM
same,IC50,[8],540 nM
same,IC50,[9],500 nM
same,IC50,PC-3,1520 nM
same,IC50,DU-145,1480 nM
same,IC50,LNCaP,1760 nM
same,IC50,[10],1540 nM
same,IC50,RCC4,1880 nM
same,IC50,[11],4400 nM
same,IC50,UMSCC1,760 nM
same,IC50,SCC-4,2800 nM
same,IC50,SCC-38,1700 nM
same,IC50,A549,1990 nM
same,IC50,NCI-H1299,1490 nM
same,IC50,NCI-H1975 [12],1660 nM
same,IC50,NCI-H460,2200 nM
same,IC50,HCC827,1300 nM
same,IC50,[13],1800 nM
same,IC50,[14],1080 nM
same,IC50,NSCLC,1480 nM
same,IC50,[15],1800 nM
same,IC50,NCI-H1650,790 nM
same,IC50,NCI-H1975 [16],600 nM
same,IC50,NCI-H2228,1950 nM
same,IC50,SW13,100 nM
same,IC50,SK-MEL-28,1720 nM
same,IC50,U-251,690 nM
same,IC50,[17],2000 nM
same,IC50,MCF7,1580 nM
same,IC50,MDA-MB-231,670 nM
same,IC50,A2780,2110 nM
same,IC50,SK-OV-3,2290 nM
same,IC50,[18],930 nM
same,IC50,[19],1130 nM
same,IC50,[20],1000 nM
same,IC50,U2OS,2110 nM
same,IC50,HOS,2550 nM
same,IC50,MG-63,1970 nM
same,IC50,SAOS-2,1050 nM
same,Activity,Rhizoctonia solani,62.6%
same,Activity,[21],62.6%
same,Activity,Erysiphales [22],80.5%
same,Activity,Erysiphales [23],45.4%
same,MIC,Staphylococcus aureus,0.5 µg/mL
same,Ki,[24],490 nM
same,Ki,[25],45 nM
same,IC50,Cytochrome P450 2C11 [26],10200 nM
same,Ki,Cytochrome P450 2C11 [27],7050 nM
same,IC50,Cytochrome P450 1A2 [28],52800 nM
same,Ki,Cytochrome P450 1A2 [29],39200 nM
same,IC50,Cytochrome P450 3A2 [30],23200 nM
same,Ki,Cytochrome P450 3A2 [31],14200 nM
same,EC50 at 48 h,[32],900 nM
same,EC50 at 72 h,[33],700 nM
same,LC50,[34],1400 nM
same,LD50,Mus musculus,20.5 mg/kg
